# Reference: US6475434B1, “Composition and methods for preventing and removing biofilm embedded microorganisms from the surface of medical devices” (Baylor College of Medicine, priority 1998, dated 2002)
# Tests used:
# [1] = tested on: Staphylococcus epidermidis; test: Flush cultures of biofilm-colonised catheter lumens after treatment solutions (Example 1); format: cell-based
# Procedure: Seeding phase: A dynamic flow sterile system that consisted of an infusion bad containing a bacterial suspension of Staphylococcus epidermidis (4×10^5 cfu/ml of saline) that infused at equal (about 41 ml/hour) into the lumens of eight ethylene oxide gas sterilized, 7-french, 20 cm polyurethane, single-lumen catheters for 12 hours at room temperature. The catheters were covered plastic sheath to ensure sterility of the surfaces. The bacterial suspension drained from the catheters into beakers.
# Growth phase: The lumens of the four catheters were infused with sterile trypticase soy broth (“TSB”) at a rate of 10 ml/hour for 24 hours to allow for biofilm formation. The infused broth drained from the catheters into the beakers. […]
# The clamps were removed from each end of Catheters 1, 3, 5, and 7 and the treatment solutions were drained. […] Hundred microliter aliquots of the collected portions of the flushed TSB and 10-fold serial dilutions were inoculated onto chocolate agar plates and colony counts were determined after incubation of agar plates at 37° C. for 48 hours.
# [2] = tested on: Staphylococcus epidermidis; test: Minimal bactericidal concentration for the studied strain; format: cell-based; conditions: studied strain of Staphylococcus epidermidis
# Procedure: Treatment phase: The lumens of the eight catheters were treated with biofilm penetrating composition solutions as described in Table I. The N-acetylcysteine and rifampin are used at a concentration equivalent to ten times the corresponding minimal bactericidal concentration of the N-aceylcysteine and the rifampin for the studied strain of Staphylococcus epidermidis (3.1 mg/ml and 0.02 μg/ml respectively).
Compound,"effect on biofilm and biofilm embedded microorganisms (in words) ([1]; Example 1 conclusion, 31 mg/ml in phosphate buffered saline)","antimicrobial activity against biofilm embedded microorganisms compared with rifampin (in words) ([1]; assessed by flush cultures, at the concentration used)",MBC [2]
CC(=O)N[C@@H](CS)C(=O)O [N-acetylcysteine],effectively penetrates and breaks-up the biofilm and kills biofilm embedded microorganisms,surpasses the antimicrobial activity of rifampin,3100 µg/mL
CO[C@H]1/C=C/O[C@@]2(C)Oc3c(C)c(O)c4c(O)c(c(/C=N/N5CCN(C)CC5)c(O)c4c3C2=O)NC(=O)/C(C)=C\C=C\[C@H](C)[C@H](O)[C@@H](C)[C@@H](O)[C@@H](C)[C@H](OC(C)=O)[C@@H]1C [rifampin],,,0.02 µg/mL
